Data taken from US9073918B2, “Pyrazolo[4,3-b]pyridine-7-amine inhibitors of ALK5” (Takeda Pharmaceutical Company Limited, priority 2010, dated 2015).
Structures can show the parent of a compound that is named as a salt.

How the values were obtained:
cellular TGF-β R1 ALK5 = molecular target: T1, cellular TGF-β R1 ALK5 (Homo sapiens, UniProt P36897); test: Cellular inhibition of ALK5 (CellSensor SBE-bla HEK 293T beta-lactamase reporter); type: cell-based; conditions: cellular inhibition of ALK5, SBE-bla HEK 293T cells, TGFb-1 stimulated 5 hours; average where measured in multiple experiments
T1 construct: host or cells: CellSensor SBE-bla HEK 293T
T1 sequence (P36897 34-503): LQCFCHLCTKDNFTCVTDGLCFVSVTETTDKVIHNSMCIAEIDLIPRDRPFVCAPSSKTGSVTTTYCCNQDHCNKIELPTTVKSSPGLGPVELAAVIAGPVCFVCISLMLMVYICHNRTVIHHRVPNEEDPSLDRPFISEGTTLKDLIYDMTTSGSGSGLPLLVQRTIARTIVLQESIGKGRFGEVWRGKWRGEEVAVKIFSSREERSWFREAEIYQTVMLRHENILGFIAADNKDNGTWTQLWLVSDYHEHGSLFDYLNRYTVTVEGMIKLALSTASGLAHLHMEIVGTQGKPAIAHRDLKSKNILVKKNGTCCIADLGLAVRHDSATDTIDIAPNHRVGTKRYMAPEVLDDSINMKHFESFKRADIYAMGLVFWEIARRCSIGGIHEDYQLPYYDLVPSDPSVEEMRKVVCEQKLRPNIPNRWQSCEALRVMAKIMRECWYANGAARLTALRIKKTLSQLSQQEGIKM
Outline: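 SBE-bla HEK 293T beta-lactamase reporter cells pre-incubated 1 h at 37 °C with 2.5-fold serially diluted compounds (0.5% DMSO), then stimulated 5 h with TGFb-1 (100 ng/mL stock).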

TGF-β R1 ALK5 = molecular target: T2, TGF-β R1 ALK5 (Homo sapiens, UniProt P36897); test: In vitro inhibition of ALK5 (LanthaScreen activity assay, TR-FRET); type: biochemical
T2 construct: purchased Invitrogen PV5837
T2 sequence (P36897 34-503): T1 sequence (P36897 34-503)

Row | melting point [°C] | IC50 (cellular TGF-β R1 ALK5) [nM] | IC50 (TGF-β R1 ALK5) [nM] | Compound | other results
1 | 256 |  |  | CCNC(=O)n1ncc2nccc(Nc3ccnc(-c4cc(Cl)ccc4F)c3)c21 (as salt: TFA) [Example 29, 7-(2-(5-chloro-2-fluorophenyl)pyridin-4-ylamino)-N-ethyl-1H-pyrazolo[4,3-b]pyridine-1-carboxamide] | 
2 | 256 |  |  | CNC(=O)n1ncc2nccc(Nc3ccnc(-c4cc(Cl)ccc4F)c3)c21 (as salt: TFA) [Example 32, 7-(2-(5-chloro-2-fluorophenyl)pyridin-4-ylamino)-N-methyl-1H-pyrazolo[4,3-b]pyridine-1-carboxamide] | 
3 | 131 to 132 |  |  | NC(=O)Cn1ncc2nccc(Nc3ccnc(-c4cc(Cl)ccc4F)c3)c21 (as salt: TFA) [Example 44, 2-(7-(2-(5-chloro-2-fluorophenyl)pyridin-4-ylamino)-1H-pyrazolo[4,3-b]pyridin-1-yl)acetamide] | 
4 | 135 |  |  | CNC(=O)n1ncc2nccc(Nc3cc(-c4cc(Cl)ccc4F)ncc3C)c21 (as salt: TFA) [Example 52, 7-(2-(5-chloro-2-fluorophenyl)-5-methylpyridin-4-ylamino)-N-methyl-1H-pyrazolo[4,3-b]pyridine-1-carboxamide] | 
5 | 292 |  |  | Cc1cnc(-c2cc(Cl)ccc2F)cc1Nc1ccnc2cnn(C(=O)NC(C)C)c12 (as salt: TFA) [Example 54, 7-(2-(5-chloro-2-fluorophenyl)-5-methylpyridin-4-ylamino)-N-isopropyl-1H-pyrazolo[4,3-b]pyridine-1-carboxamide] | 
6 | 245 |  |  | CCNC(=O)n1ncc2nccc(Nc3cc(C)nc(-c4cc(Cl)ccc4F)c3)c21 (as salt: TFA) [Example 59, 7-(2-(5-chloro-2-fluorophenyl)-6-methylpyridin-4-ylamino)-N-ethyl-1H-pyrazolo[4,3-b]pyridine-1-carboxamide] | 
7 | 135 to 136 |  |  | Cc1ccc(F)c(-c2cc(Nc3ccnc4cnn(CC(C)(C)O)c34)ccn2)n1 (as salt: TFA) [Example 70, 1-(7-(3′-fluoro-6′-methyl-2,2′-bipyridin-4-ylamino)-1H-pyrazolo[4,3-b]pyridin-1-yl)-2-methylpropan-2-ol] | 
8 |  | 794 | 25.1 | CCNC(=O)Cn1ncc2nccc(Nc3cc(-c4cc(F)ccc4F)ncc3C)c21 [Example 155, 2-(7-(2-(2,5-difluorophenyl)-5-methylpyridin-4-ylamino)-1H-pyrazolo[4,3-b]pyridin-1-yl)-N-ethylacetamide] | 
9 |  | 398 | 25.1 | Cc1ccc(F)c(-c2cc(Nc3ccnc4cnn(C5CCS(=O)(=O)C5)c34)c(C)cn2)n1 (centres unmarked) [Example 157, N-[1-(1,1-dioxidotetrahydrothiophen-3-yl)-1H-pyrazolo[4,3-b]pyridin-7-yl]-3′-fluoro-5,6′-dimethyl-2,2′-bipyridin-4-amine] | 
10 |  | 126 | 6.31 | CNC(=O)Cn1cc2nccc(Nc3cc(-c4cc(F)ccc4F)ncc3C)c2n1 [Example 158, 2-(7-(2-(2,5-difluorophenyl)-5-methylpyridin-4-ylamino)-2H-pyrazolo[4,3-b]pyridin-2-yl)-N-methylacetamide] | 

More lines, now with the values behind:

Row | Compound | melting point [°C] | IC50 (cellular TGF-β R1 ALK5) [nM] | IC50 (TGF-β R1 ALK5) [nM] | other results
11 | Cc1ccc(F)c(-c2cc(Nc3ccnc4cn(C[C@H](O)CO)nc34)ccn2)n1 (as salt: HCl) [Example 69, (S)-3-(7-(3′-fluoro-6′-methyl-2,2′-bipyridin-4-ylamino)-2H-pyrazolo[4,3-b]pyridin-2-yl)propane-1,2-diol] | 182 to 184 |  |  | 
12 | CN(C)C(=O)Cn1ncc2nccc(Nc3ccnc(-c4cc(Cl)ccc4F)c3)c21 (as salt: TFA) [Example 38, 2-(7-(2-(5-chloro-2-fluorophenyl)pyridin-4-ylamino)-1H-pyrazolo[4,3-b]pyridin-1-yl)-N,N-dimethylacetamide] | 293 |  |  | 
13 | CNC(=O)n1ncc2nccc(Nc3cc(C)nc(-c4cc(Cl)ccc4F)c3)c21 (as salt: TFA) [Example 58, 7-(2-(5-chloro-2-fluorophenyl)-6-methylpyridin-4-ylamino)-N-methyl-1H-pyrazolo[4,3-b]pyridine-1-carboxamide] | 248 |  |  | 
14 | Cc1ccc(F)c(-c2cc(Nc3ccnc4cn(C)nc34)c(C)cn2)n1 [Example 123, N-(3′-fluoro-5,6′-dimethyl-2,2′-bipyridin-4-yl)-2-methyl-2H-pyrazolo[4,3-b]pyridin-7-amine] | 102.9 to 103 | 79.4 | 25.1 | 
15 | Cc1ccc(F)c(-c2cc(Nc3ccnc4cnn(C[C@H](C)O)c34)c(C)cn2)n1 [Example 152, (S)-1-(7-(3′-fluoro-5,6′-dimethyl-2,2′-bipyridin-4-ylamino)-1H-pyrazolo[4,3-b]pyridin-1-yl)propan-2-ol] |  | 100 | 7.94 | 
16 | CCNC(=O)Cn1ncc2nccc(Nc3cc(-c4nc(C)ccc4F)ncc3C)c21 [Example 153, N-ethyl-2-(7-(3′-fluoro-5,6′-dimethyl-2,2′-bipyridin-4-ylamino)-1H-pyrazolo[4,3-b]pyridin-1-yl)acetamide] |  | 79.4 | 7.94 | 
17 | CCNC(=O)Cn1cc2nccc(Nc3cc(-c4nc(C)ccc4F)ncc3C)c2n1 [Example 154, N-ethyl-2-(7-(3′-fluoro-5,6′-dimethyl-2,2′-bipyridin-4-ylamino)-2H-pyrazolo[4,3-b]pyridin-2-yl)acetamide] |  | 1580 | 31.6 | 
18 | CCNC(=O)Cn1cc2nccc(Nc3cc(-c4cc(F)ccc4F)ncc3C)c2n1 [Example 156, 2-(7-(2-(2,5-difluorophenyl)-5-methylpyridin-4-ylamino)-2H-pyrazolo[4,3-b]pyridin-2-yl)-N-ethylacetamide] |  | 126 | 3.16 | 
19 | N-(2-(5-chloro-2-fluorophenyl)pyridin-4-yl)-2-(2-methoxyethyl)-2H-pyrazolo[4,3-b]pyridin-7-amine and N-(2-(5-chloro-2-fluorophenyl)pyridin-4-yl)-1-(2-methoxyethyl)-2H-pyrazolo[4,3-b]pyridin-7-amine [Example 35] |  |  |  | pIC50 (cellular TGF-β R1 ALK5): 6.6; pIC50 (TGF-β R1 ALK5; in vitro inhibition of ALK5, 15 nM ALK5, 2 μM ATP, Fluorescein-SMAD3 peptide, 90 minutes at room temperature, average where measured in multiple experiments): 6.6
